In patent publication US6667329B1, “Agents with antidepressant action, containing pramipexol and second antidepressant” (Boehringer Ingelheim Pharma GmbH & Co. KG, priority 1998, dated 2003):

System: rats
Assay: forced swimming test in rats
Settings: series Pramipexole + amitriptyline
Source text: The test can be carried out as follows for each of the combinations of active substances tested.

| SMILES | Immobility time [s] |
| --- | --- |
| CCCNC1CCc2nc(N)sc2C1.Cl.Cl (centres unmarked) [Pramipexole, 2-amino-6-n-propylamino4,5,6,7-tetrahydrobenzo-thiazole-dihydrochloride] | 164.3 ± 9.8 |
| CN(C)CCC=C1c2ccccc2CCc2ccccc21 [Amitriptyline] | 174.6 ± 9.2 |
